Reference: patent US9023789B2, “Amylin analogs and pharmaceutical compositions thereof” (Novo Nordisk A/S, priority 2012, dated 2015)
pIC50: −log10 of the molar value. Numbered stars: 1 amine (or outer) side, 2 acyl side, 3 side chain; on linkers, the order of the positions; unused ones are H or OH. Bridge positions count the residues as written; N and C are the ends. Side chains are listed from the residue outwards. Peptide text beside a SMILES is read from it. * marks the point of attachment. C20 diacid = O=C(O)CCCCCCCCCCCCCCCCCCC(=O)*; γGlu = O=C(O)[C@H](CCC(=O)[*:2])N[*:1]

Columns and labels:
[1] = target: T1, rat calcitonin receptor (Rattus norvegicus, UniProt P32214); assay: ASSAY (VIII) binding to the rat calcitonin receptor; details: Table 7, read-out: rCTR bind IC50
T1 construct: expressed in transfected cells; host or cells: BHK tk'ts 13 (transient, FuGENE 6), membranes
T1 sequence (P32214 25-479 isoform P32214-2 limits assumed): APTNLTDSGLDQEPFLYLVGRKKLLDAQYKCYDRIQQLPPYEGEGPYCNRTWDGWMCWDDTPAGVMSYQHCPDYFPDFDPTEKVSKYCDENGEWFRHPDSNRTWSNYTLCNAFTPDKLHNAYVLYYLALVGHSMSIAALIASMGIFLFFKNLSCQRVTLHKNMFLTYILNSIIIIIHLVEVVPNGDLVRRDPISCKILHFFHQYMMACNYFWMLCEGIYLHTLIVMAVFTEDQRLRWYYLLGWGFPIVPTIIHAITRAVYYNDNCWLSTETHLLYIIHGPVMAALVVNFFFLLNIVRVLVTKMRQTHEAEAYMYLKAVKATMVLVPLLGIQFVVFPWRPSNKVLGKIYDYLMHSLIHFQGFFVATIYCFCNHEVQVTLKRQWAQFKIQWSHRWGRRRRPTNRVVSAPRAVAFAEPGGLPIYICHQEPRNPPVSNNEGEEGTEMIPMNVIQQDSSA
Outline: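 Receptor source: membranes from transiently transfected BHK tk′ts 13 cells expressing rat calcitonin receptor, collected roughly 48 hours after transfection.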

[2] = ASSAY (III) ThT fibrillation assay for physical stability; format: physicochemical
Outline: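 Physical stability scored by ThT fluorescence (444 nm excitation, 485 nm emission) tracked every 20 min during 37 °C incubation with 960 rpm shaking, ThT at 1 μM final. Values are replicate means with SD at chosen times; HPLC against pramlintide standard gives initial and post-assay soluble concentrations.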

[3] = target: T2, rat amylin receptor (rat calcitonin receptor + rat RAMP 3) (Rattus norvegicus, UniProt P32214+Q9JJ73); assay: ASSAY (VI) binding to the rat amylin receptor; details: for pIC50: binding to rat amylin receptor, read-out: rAmylin-R bind IC50
T2 construct: expressed in transfected cells; host or cells: BHK tk'ts 13 (transient, FuGENE 6), membranes
T2 sequence (P32214 25-479 isoform P32214-2 limits assumed): T1 sequence (P32214 25-479 isoform P32214-2 limits assumed)
T2 sequence (Q9JJ73 23-147 partner): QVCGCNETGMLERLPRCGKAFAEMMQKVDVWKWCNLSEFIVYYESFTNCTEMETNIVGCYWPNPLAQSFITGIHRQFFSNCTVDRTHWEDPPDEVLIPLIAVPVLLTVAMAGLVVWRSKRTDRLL
Outline: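 Membranes for this rat amylin receptor binding assay came from BHK tk′ts 13 cells. The cells were transiently transfected with rat calcitonin receptor using the FuGENE® 6 reagent from Roche, as the manufacturer recommends. The cells were collected approximately 48 hours after transfection, and membranes were then prepared.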

[4] = Table 7, rat binding selectivity, rCTR IC50 / rAmylin-R IC50
[5] = Table 7a (preferred compounds), rat binding selectivity, rCTR IC50 / rAmylin-R IC50
[6] = ratio of rCTR bind IC50 to rAmylin-R bind IC50

SMILES	pIC50 [1]	ThT pH 4.0 lag time (h) [2]	pIC50 ([3]; Table 7)	Ratio rCT/rAmylin binding [3, 4]	Ratio rCT/rAmylin binding [3, 5]	Ratio rCT/rAmylin binding [3, 6]
CC[C@H](C)[C@H](NC(=O)[C@H](C)NC(=O)CNC(=O)[C@H](Cc1ccccc1)NC(=O)[C@H](CC(N)=O)NC(=O)[C@@H]1CCCN1C(=O)[C@H](CO)NC(=O)[C@H](CO)NC(=O)[C@H](Cc1c[nH]cn1)NC(=O)[C@H](CCCNC(=N)N)NC(=O)[C@H](CC(C)C)NC(=O)[C@H](Cc1ccccc1)NC(=O)[C@H](CC(N)=O)NC(=O)[C@H](C)NC(=O)[C@H](CC(C)C)NC(=O)[C@H](CCCNC(=N)N)NC(=O)[C@H](CCC(N)=O)NC(=O)[C@@H](NC(=O)[C@H](C)NC(=O)[C@@H]1CSSC[C@H](NC(=O)[C@@H](N)CCCCNC(=O)COCCOCCNC(=O)COCCOCCNC(=O)CC[C@H](NC(=O)CCCCCCCCCCCCCCCCCCC(=O)O)C(=O)O)C(=O)N[C@@H](CC(N)=O)C(=O)N[C@@H]([C@@H](C)O)C(=O)N[C@@H](C)C(=O)N[C@@H]([C@@H](C)O)C(=O)N1)[C@@H](C)O)C(=O)N1CCC[C@H]1C(=O)N[C@@H](CO)C(=O)N[C@@H](CO)C(=O)N[C@H](C(=O)N[C@@H](CC(N)=O)C(=O)N[C@H](C(=O)NCC(=O)N1CCC[C@H]1C(=O)N[C@@H](CC(N)=O)C(=O)N[C@H](C(=O)N[C@@H](Cc1ccc(O)cc1)C(N)=O)[C@@H](C)O)C(C)C)[C@@H](C)O [Example 98]	7.62	4 h	9.86	175.5	175.5	175.5
CC[C@H](C)[C@H](NC(=O)[C@H](C)NC(=O)CNC(=O)[C@H](Cc1ccccc1)NC(=O)[C@H](CC(N)=O)NC(=O)[C@@H]1CCCN1C(=O)[C@H](CO)NC(=O)[C@H](CO)NC(=O)[C@H](Cc1c[nH]cn1)NC(=O)[C@H](CCCNC(=N)N)NC(=O)[C@H](CC(C)C)NC(=O)[C@H](Cc1ccccc1)NC(=O)[C@H](Cc1c[nH]cn1)NC(=O)[C@H](C)NC(=O)[C@H](CC(C)C)NC(=O)[C@H](CCCNC(=N)N)NC(=O)[C@H](CCC(N)=O)NC(=O)[C@@H](NC(=O)[C@H](C)NC(=O)[C@@H]1CSSC[C@H](NC(=O)[C@H](CCCNC(=N)N)NC(=O)CNC(=O)CC[C@H](NC(=O)CCCCCCCCCCCCCCCCCCC(=O)O)C(=O)O)C(=O)N[C@@H](CC(N)=O)C(=O)N[C@@H]([C@@H](C)O)C(=O)N[C@@H](C)C(=O)N[C@@H]([C@@H](C)O)C(=O)N1)[C@@H](C)O)C(=O)N1CCC[C@H]1C(=O)N[C@@H](CO)C(=O)N[C@@H](CO)C(=O)N[C@H](C(=O)N[C@@H](CC(N)=O)C(=O)N[C@H](C(=O)NCC(=O)N[C@@H](CO)C(=O)N[C@@H](CC(N)=O)C(=O)N[C@H](C(=O)N[C@@H](Cc1ccc(O)cc1)C(N)=O)[C@@H](C)O)C(C)C)[C@@H](C)O [Example 99] ({C20 diacid-γGlu}-GRCNTATCATQRLAHFLRHSSPNFGAIPSSTNVGSNTY-NH2; disulfide 3-8)	6.67	17 h	8.57	79.8	79.8	79.8
CC[C@H](C)[C@H](NC(=O)[C@H](C)NC(=O)CNC(=O)[C@H](Cc1ccccc1)NC(=O)[C@H](CC(N)=O)NC(=O)[C@@H]1CCCN1C(=O)[C@H](CO)NC(=O)[C@H](CO)NC(=O)[C@H](Cc1c[nH]cn1)NC(=O)[C@H](CCCNC(=N)N)NC(=O)[C@H](CC(C)C)NC(=O)[C@H](Cc1ccccc1)NC(=O)[C@H](Cc1c[nH]cn1)NC(=O)[C@H](C)NC(=O)[C@H](CC(C)C)NC(=O)[C@H](CCCNC(=N)N)NC(=O)[C@H](CCC(N)=O)NC(=O)[C@@H](NC(=O)[C@H](C)NC(=O)[C@@H]1CSSC[C@H](NC(=O)[C@H](CCCNC(=N)N)NC(=O)CNC(=O)CC[C@H](NC(=O)CCCCCCCCCCCCCCCCCCC(=O)O)C(=O)O)C(=O)N[C@@H](CC(N)=O)C(=O)N[C@@H]([C@@H](C)O)C(=O)N[C@@H](C)C(=O)N[C@@H]([C@@H](C)O)C(=O)N1)[C@@H](C)O)C(=O)N1CCC[C@H]1C(=O)N[C@@H](CO)C(=O)N[C@@H](CO)C(=O)N[C@H](C(=O)N[C@@H](CC(N)=O)C(=O)N[C@H](C(=O)NCC(=O)N[C@@H](Cc1c[nH]cn1)C(=O)N[C@@H](CC(N)=O)C(=O)N[C@H](C(=O)N[C@@H](Cc1ccc(O)cc1)C(N)=O)[C@@H](C)O)C(C)C)[C@@H](C)O [Example 100] ({C20 diacid-γGlu}-GRCNTATCATQRLAHFLRHSSPNFGAIPSSTNVGHNTY-NH2; disulfide 3-8 (inferred))	6.51	33 h	7.95	27.7	27.7	27.7
CC[C@H](C)[C@H](NC(=O)[C@H](C)NC(=O)CNC(=O)[C@H](Cc1ccccc1)NC(=O)[C@H](CC(N)=O)NC(=O)[C@@H]1CCCN1C(=O)[C@H](CO)NC(=O)[C@H](CO)NC(=O)[C@H](Cc1c[nH]cn1)NC(=O)[C@H](CCCNC(=N)N)NC(=O)[C@H](CC(C)C)NC(=O)[C@H](Cc1ccccc1)NC(=O)[C@H](CCC(=O)O)NC(=O)[C@H](C)NC(=O)[C@H](CC(C)C)NC(=O)[C@H](CCCNC(=N)N)NC(=O)[C@H](CCC(N)=O)NC(=O)[C@@H](NC(=O)[C@H](C)NC(=O)[C@@H]1CSSC[C@H](NC(=O)[C@@H](N)CCCCNC(=O)CC[C@H](NC(=O)CC[C@H](NC(=O)CCCCCCCCCCCCCCCCCCC(=O)O)C(=O)O)C(=O)O)C(=O)N[C@@H](CC(N)=O)C(=O)N[C@@H]([C@@H](C)O)C(=O)N[C@@H](C)C(=O)N[C@@H]([C@@H](C)O)C(=O)N1)[C@@H](C)O)C(=O)N[C@@H](CC(C)C)C(=O)N[C@@H](CO)C(=O)N[C@@H](CO)C(=O)N[C@H](C(=O)N1CCC[C@H]1C(=O)N[C@H](C(=O)NCC(=O)N1CCC[C@H]1C(=O)N[C@@H](CCC(=O)O)C(=O)N[C@H](C(=O)N[C@@H](Cc1ccc(O)cc1)C(N)=O)[C@@H](C)O)C(C)C)[C@@H](C)O [Example 121] (H-K([γGlu-γGlu-C20 diacid])CNTATCATQRLAEFLRHSSPNFGAILSSTPVGPETY-NH2; disulfide 2-7; N-terminus assumed)	7.47	3 h	9.35	74.7	74.7	74.7
CC[C@H](C)[C@H](NC(=O)[C@H](C)NC(=O)CNC(=O)[C@@H]1CCCN1C(=O)[C@H](CC(N)=O)NC(=O)[C@H](CC(N)=O)NC(=O)[C@H](CO)NC(=O)[C@H](CO)NC(=O)[C@H](Cc1c[nH]cn1)NC(=O)[C@H](CCCNC(=N)N)NC(=O)[C@H](CC(C)C)NC(=O)[C@H](Cc1ccccc1)NC(=O)[C@H](CCC(=O)O)NC(=O)[C@H](C)NC(=O)[C@H](CC(C)C)NC(=O)[C@H](CCCNC(=N)N)NC(=O)[C@H](CCC(N)=O)NC(=O)[C@@H](NC(=O)[C@H](C)NC(=O)[C@@H]1CSSC[C@H](NC(=O)[C@@H](N)CCCCNC(=O)CC[C@H](NC(=O)CC[C@H](NC(=O)CCCCCCCCCCCCCCCCCCC(=O)O)C(=O)O)C(=O)O)C(=O)N[C@@H](CC(N)=O)C(=O)N[C@@H]([C@@H](C)O)C(=O)N[C@@H](C)C(=O)N[C@@H]([C@@H](C)O)C(=O)N1)[C@@H](C)O)C(=O)N[C@@H](CC(C)C)C(=O)N[C@@H](CO)C(=O)N[C@@H](CO)C(=O)N[C@H](C(=O)N[C@@H](CC(N)=O)C(=O)N[C@H](C(=O)NCC(=O)N1CCC[C@H]1C(=O)N[C@@H](CCC(=O)O)C(=O)N[C@H](C(=O)N[C@@H](Cc1ccc(O)cc1)C(N)=O)[C@@H](C)O)C(C)C)[C@@H](C)O [Example 126] (H-K([γGlu-γGlu-C20 diacid])CNTATCATQRLAEFLRHSSNNPGAILSSTNVGPETY-NH2; disulfide 2-7 (inferred); N-terminus assumed)	7.06	0 h	9.18	131.7	131.7	
